We go through 3 substances from patent US20140348819A1, “Methods of Treating Cancer” (Dana-Farber Cancer Institute, Inc., priority 2011, published 2014).

One test deals with pERK/pAKT. Kind of test: High-throughput western analysis of pERK/pAKT re-activation by RTK ligands under BRAFi/MEKi. In kind it is cell-based, human. The following applies: under BRAFi (PLX4720); after 1 hour of cytokine treatment; six V600E BRAF melanoma cell lines. As for the experimental part: FIG. 23B is a western blot showing the activation of AKT (phosphorylated AKT, S473) after 1 hour and 24 hours after treatment with HGF, IGF-1 (IGF), and Insulin (INS) in the presence of BRAFi (PLX4720, 2 μM). FIG. 23C is a western blot showing the effect of HGF (25 ng/mL) on MAPK and PI3K/AKT pathway activation (pRAF1, pMEK, pERK, pAKT and pMET) in melanoma cell lines after 24 hours of treatment with 2 μM BRAFi (PLX4720) or 2 μM MEKi (PD184352).
To understand why, of all the RTKs tested, only HGF could induce such a unique primary resistance phenotype, a high-throughput western analysis was used to test the ability of all 22 RTK ligands to re-activate pERK/pAKT under BRAFi (PLX4720) treatment in six V600E BRAF melanoma cell lines. […] However, whereas the activation of both ERK and AKT by HGF under PLX4720 treatment was long lasting, the activation of either ERK or AKT by the above cytokines was only transient and thus could not confer resistance to the melanoma cell lines.

In test [1] the test system is six V600E BRAF melanoma cell lines. Kind of test: Screening of recombinant RTK ligands for ability to confer resistance to BRAFi (PLX4720) or MEKi (PD184352) (Table 4). In kind it is cell-based, human. Also on record: ability of recombinant RTK ligand to confer resistance / ability of recombinant RTK ligand to confer resistance (screening value): scale not given here. In a few lines: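 Six V600E BRAF melanoma lines treated with PLX4720 or PD184352 after addition of 22 recombinant RTK ligands, scored for drug resistance. Activation of selected RTKs confirmed by western blotting and high-throughput tyrosine kinase phosphorylation profiling.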

Take IGF-1: RTK ligand of IGF-1R: the “re-activation of pERK/pAKT” value in the test with pERK/pAKT was “only reactivate AKT”. In addition, in test [1] (six V600E BRAF melanoma cell lines, BRAFi (PLX4720) or MEKi (PD184352)), the “ability of RTK ligand to confer primary resistance” value is “not shown to induce primary resistance”.

For the substance “FGF-1: RTK ligand (FGFR), cytokine tested”, in the test on pERK/pAKT, the “re-activation of pERK/pAKT” value is given as “reactivate only ERK”.

With NGF, the “ability of recombinant RTK ligand to confer resistance” value (“ability of recombinant RTK ligand” below) turned out to be 0.98 in test [1] (A2058, PD184352 - 1 uM, ligand 0.4 ng/ml); 0.95 in test [1] (A2058, PD184352 - 1 uM, ligand 1.6 ng/ml); 1.09 in test [1] (A2058, PD184352 - 1 uM, ligand 6.25 ng/ml); 0.99 in test [1] (A2058, PD184352 - 1 uM, ligand 25 ng/ml); 0.99 in test [1] (A2058, PD184352 - 1 uM, ligand 100 ng/ml); 1.04 in test [1] (A2058, PLX4720 - 2 uM, ligand 0.4 ng/ml). Besides, the “ability of recombinant RTK ligand” value was found to be 1.02 in test [1] (A2058, PLX4720 - 2 uM, ligand 1.6 ng/ml); 1.06 in test [1] (A2058, PLX4720 - 2 uM, ligand 6.25 ng/ml); 1.07 in test [1] (A2058, PLX4720 - 2 uM, ligand 25 ng/ml); 0.98 in test [1] (A2058, PLX4720 - 2 uM, ligand 100 ng/ml); 1.00 in test [1] (C32, PD184352 - 1 uM, ligand 0.4 ng/ml); 1.07 in test [1] (C32, PD184352 - 1 uM, ligand 1.6 ng/ml). In addition, the “ability of recombinant RTK ligand” value in test [1] (C32, PD184352 - 1 uM, ligand 6.25 ng/ml) turned out to be 1.07; in test [1] (C32, PD184352 - 1 uM, ligand 25 ng/ml), 0.98; in test [1] (C32, PD184352 - 1 uM, ligand 100 ng/ml) it was 1.03; in test [1] (C32, PLX4720 - 2 uM, ligand 0.4 ng/ml), 0.98; in test [1] (C32, PLX4720 - 2 uM, ligand 1.6 ng/ml), 0.98; in test [1] (C32, PLX4720 - 2 uM, ligand 6.25 ng/ml) it was 1.03. Also, the “ability of recombinant RTK ligand” value in test [1] (C32, PLX4720 - 2 uM, ligand 25 ng/ml) was 0.97; in test [1] (C32, PLX4720 - 2 uM, ligand 100 ng/ml), 0.87; in test [1] (Colo 829, PD184352 - 1 uM, ligand 0.4 ng/ml), 1.04; in test [1] (Colo 829, PD184352 - 1 uM, ligand 1.6 ng/ml), 1.03; in test [1] (Colo 829, PD184352 - 1 uM, ligand 6.25 ng/ml), 1.04; in test [1] (Colo 829, PD184352 - 1 uM, ligand 25 ng/ml), 0.94. Besides, the “ability of recombinant RTK ligand” value in test [1] (Colo 829, PD184352 - 1 uM, ligand 100 ng/ml) is 1.02; in test [1] (Colo 829, PLX4720 - 2 uM, ligand 0.4 ng/ml), 0.96; in test [1] (Colo 829, PLX4720 - 2 uM, ligand 1.6 ng/ml), 0.96; in test [1] (Colo 829, PLX4720 - 2 uM, ligand 6.25 ng/ml), 1.02; in test [1] (Colo 829, PLX4720 - 2 uM, ligand 25 ng/ml) it was 0.96; in test [1] (Colo 829, PLX4720 - 2 uM, ligand 100 ng/ml) it was 1.03. Also, the “ability of recombinant RTK ligand” value in test [1] (G-361, PD184352 - 1 uM, ligand 0.4 ng/ml) amounted to 1.09; in test [1] (G-361, PD184352 - 1 uM, ligand 1.6 ng/ml), 0.78; in test [1] (G-361, PD184352 - 1 uM, ligand 6.25 ng/ml), 0.97; in test [1] (G-361, PD184352 - 1 uM, ligand 25 ng/ml), 0.85; in test [1] (G-361, PD184352 - 1 uM, ligand 100 ng/ml), 0.94; in test [1] (G-361, PLX4720 - 2 uM, ligand 0.4 ng/ml) it was 1.10. In addition, the “ability of recombinant RTK ligand” value in test [1] (G-361, PLX4720 - 2 uM, ligand 1.6 ng/ml) was determined as 0.87; in test [1] (G-361, PLX4720 - 2 uM, ligand 6.25 ng/ml) it was 0.91; in test [1] (G-361, PLX4720 - 2 uM, ligand 25 ng/ml), 0.92; in test [1] (G-361, PLX4720 - 2 uM, ligand 100 ng/ml), 0.94; in test [1] (SK-MEL-5, PD184352 - 1 uM, ligand 0.4 ng/ml) it was 1.03; in test [1] (SK-MEL-5, PD184352 - 1 uM, ligand 1.6 ng/ml), 1.04. Besides, the “ability of recombinant RTK ligand” value in test [1] (SK-MEL-5, PD184352 - 1 uM, ligand 6.25 ng/ml) was 0.96; in test [1] (SK-MEL-5, PD184352 - 1 uM, ligand 25 ng/ml), 1.07; in test [1] (SK-MEL-5, PD184352 - 1 uM, ligand 100 ng/ml), 1.09; in test [1] (SK-MEL-5, PLX4720 - 2 uM, ligand 0.4 ng/ml), 1.00; in test [1] (SK-MEL-5, PLX4720 - 2 uM, ligand 1.6 ng/ml) it was 1.03; in test [1] (SK-MEL-5, PLX4720 - 2 uM, ligand 6.25 ng/ml) it was 0.85. Further, the “ability of recombinant RTK ligand” value in test [1] (SK-MEL-5, PLX4720 - 2 uM, ligand 25 ng/ml) is on record as 0.93; in test [1] (SK-MEL-5, PLX4720 - 2 uM, ligand 100 ng/ml), 0.92; in test [1] (SK-MEL-28, PD184352 - 1 uM, ligand 0.4 ng/ml), 0.91; in test [1] (SK-MEL-28, PD184352 - 1 uM, ligand 1.6 ng/ml), 0.92; in test [1] (SK-MEL-28, PD184352 - 1 uM, ligand 6.25 ng/ml) it was 0.99; in test [1] (SK-MEL-28, PD184352 - 1 uM, ligand 25 ng/ml), 0.96. Moreover, the “ability of recombinant RTK ligand” value was determined as 1.08 in test [1] (SK-MEL-28, PD184352 - 1 uM, ligand 100 ng/ml); 0.89 in test [1] (SK-MEL-28, PLX4720 - 2 uM, ligand 0.4 ng/ml); 0.97 in test [1] (SK-MEL-28, PLX4720 - 2 uM, ligand 1.6 ng/ml); 1.05 in test [1] (SK-MEL-28, PLX4720 - 2 uM, ligand 6.25 ng/ml); 1.00 in test [1] (SK-MEL-28, PLX4720 - 2 uM, ligand 25 ng/ml); 1.12 in test [1] (SK-MEL-28, PLX4720 - 2 uM, ligand 100 ng/ml).
